Source: ChEMBL document CHEMBL1201862, “PubChem BioAssay data set” (2004)
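Values below derive from 48-hour exposures of cells grown in 96-well plates, with endpoints linearly interpolated between the two concentrations bracketing the appropriate inhibition level. At the GI50, growth is halved.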 Calls of active or inactive are those of the source. Rule as the data show it: active = GI50 up to about 1.1 µM and inactive = higher.

Tests used:
Assay in all cases: NCI tumour cell line growth inhibition, 48 h
KM-20L2 = tested on: KM-20L2
SNB-78 = tested on: SNB-78
M19-MEL = tested on: M19-MEL
DLD-1 = tested on: DLD-1
BT-549 = tested on: BT-549
T47D = tested on: T47D
PC-3 = tested on: PC-3
RXF 631 = tested on: RXF 631

SMILES | GI50 (KM-20L2) | GI50 (SNB-78) | GI50 (M19-MEL) | GI50 (DLD-1) | GI50 (BT-549) | GI50 (T47D) | GI50 (PC-3) | GI50 (RXF 631)
COc1ccc(/C(Cl)=C(\CN(C)C)c2ccc(OC)c(OC)c2)cc1OC | > 100 µM (inactive) | > 100 µM (inactive) | > 100 µM (inactive) | – | – | – | – | –
O=C(Nc1ccc(Cl)cc1)c1cc2cc(/N=N/c3ccccc3Cl)ccc2oc1=O | 4.93 µM (inactive) | 22.9 µM (inactive) | 14.3 µM (inactive) | 9.64 µM (inactive) | – | – | – | –
CCCC[S+]([O-])CC(CO)NC(=O)/C=C/c1c(C)[nH]c(=O)[nH]c1=O (stereo unspecified) | 5.64 µM (inactive) | – | 2.22 µM (inactive) | 12.1 µM (inactive) | – | – | – | –
O=C(Nc1cccc([N+](=O)[O-])c1)C(=O)C(C(=O)c1ccccc1F)C1OC(=O)C2C=CC=CC21 (stereo unspecified) | 41.2 µM (inactive) | 36.6 µM (inactive) | 31.6 µM (inactive) | 43.4 µM (inactive) | – | – | – | –
S=c1sc2c(s1)SC(c1ccccc1)CS2 (stereo unspecified) | > 100 µM (inactive) | > 100 µM (inactive) | > 100 µM (inactive) | > 100 µM (inactive) | – | – | – | –
CCOC(=O)C(O)(NC(=O)c1ccccc1F)C(F)(F)F (stereo unspecified) | – | – | – | – | > 100 µM (inactive) | > 100 µM (inactive) | > 100 µM (inactive) | –
COc1cc([N+](=O)[O-])ccc1N1C(=O)C2c3[nH]c4ccccc4c3C3CCC(C(C)(C)C)CC3C2C1=O (stereo unspecified) | – | – | – | – | 32 µM (inactive) | – | 38.6 µM (inactive) | –
CCOC(=O)C1=C(C)NC(=O)N([N+](=O)[O-])C1c1ccccc1C(F)(F)F (stereo unspecified) | – | – | – | – | 54.6 µM (inactive) | 35.4 µM (inactive) | 33.3 µM (inactive) | –
CCOC(=O)C1=NN(c2ccc(C)cc2)C2=CC(C)=NN(C)C(=S)N21 | – | – | – | – | > 100 µM (inactive) | 26.4 µM (inactive) | > 100 µM (inactive) | –
CSc1nc(NC2OCC(OC(C)=O)C(OC(C)=O)C2OC(C)=O)c(/N=C(\C)C(C)=O)c(=O)[nH]1 (stereo unspecified) | – | > 100 µM (inactive) | – | > 100 µM (inactive) | – | – | – | –
COc1ccc([C@H]2c3cc4c(cc3OC(O)(CO)[C@H]2C(=O)O)OCO4)c(OC)c1.COc1ccc([C@H]2c3cc4c(cc3OC3(O)COC(=O)[C@@H]23)OCO4)c(OC)c1 (stereo partly specified) | > 100 µM (inactive) | > 100 µM (inactive) | 61.7 µM (inactive) | 91.8 µM (inactive) | – | – | – | –
COS(=O)c1cc(Cl)cc(Cl)c1O (stereo unspecified) | – | – | > 100 µM (inactive) | > 100 µM (inactive) | – | – | – | –
O=Nn1c2ccccc2c2cc([N+](=O)[O-])ccc21 | – | – | – | – | 17.2 µM (inactive) | 31.1 µM (inactive) | 18.4 µM (inactive) | –
O=C(Nc1ccc2[nH]c3c(-c4ccccc4)nccc3c2c1)c1ccccc1[N+](=O)[O-] | 1.74 µM (inactive) | 5.47 µM (inactive) | – | – | – | – | – | 3.81 µM (inactive)
COC(=O)C(C)NP(=O)(N1CC1)N1CC1 (stereo unspecified) | > 100 µM (inactive) | > 100 µM (inactive) | – | > 100 µM (inactive) | – | – | – | > 100 µM (inactive)
O=C1c2cc3c(cc2CC1Cc1ccc2c(c1)CCC2)CCC3 (stereo unspecified) | – | – | – | – | 81.3 µM (inactive) | 10.9 µM (inactive) | 72.9 µM (inactive) | –
COc1ccc(C(=O)C2CC3(CCC2(O)c2ccc(OC)cc2)CC(=O)Nc2ccccc2C3=O)cc1 (stereo unspecified) | – | – | – | – | > 100 µM (inactive) | 0.366 µM (active) | 1.44 µM (inactive) | –
CCOC(=O)Cc1cnc(NC(NC(=O)CC)(C(F)(F)F)C(F)(F)F)s1 | – | – | – | – | > 100 µM (inactive) | > 100 µM (inactive) | – | –
COc1cc(/N=N\c2cccc(S(=O)(=O)O)c2)ccc1/N=N\c1ccc(/C=C/c2ccc(-n3on3-c3ccc(/C=C/c4ccc(/N=N/c5ccc(/N=N\c6cccc(S(=O)(=O)O)c6)cc5OC)cc4S(=O)(=O)O)c(S(=O)(=O)O)c3)cc2S(=O)(=O)O)c(S(=O)(=O)O)c1 | > 100 µM (inactive) | > 100 µM (inactive) | > 100 µM (inactive) | > 100 µM (inactive) | – | – | – | –
COc1cc(C2c3cc4c(cc3[C@@H](Nc3ccc(Oc5ccccc5)cc3)C3COC(=O)[C@H]23)OCO4)cc(OC)c1O (stereo partly specified) | 1.17 µM (inactive) | > 61 µM (inactive) | 4.36 µM (inactive) | 3.95 µM (inactive) | – | – | – | –
Oc1nc2ccccc2c2oc3ccccc3c12 | – | – | – | – | > 100 µM (inactive) | 16.1 µM (inactive) | > 100 µM (inactive) | –
